Earlier results on one compound are cited in publication PMC6286156 (Cell Calcium, 2018).

SMILES strings stand for the structures.

For series [1], the system named is Ebola. Particulars: mouse, in vivo; cited from earlier work.
The subject of series [2] is NAADP-evoked Ca^2+ signals. Particulars: cited from earlier work.

As for `COc1ccc2cc1Oc1ccc(cc1)C[C@H]1c3cc(c(OC)cc3CCN1C)Oc1c(OC)c(OC)cc3c1[C@H](C2)N(C)CC3` [tetrandrine], in series [1], the Survival entry is “improved survival”. For the same compound, the “Concentration range acting as TPC pore blocker (in words)” value in series [2] is on record as “sub-micromolar range”.
